According to the NIST ThermoML archive (doi:10.1016/j.jct.2015.12.025):

Legend:
[1] = refractive index (Na D-line) (dimensionless); xn = mol fraction of the nth substance listed; conditions: 102 kPa, Liquid, Standard Abbe refractometry
[2] = xn = mol fraction of the nth substance listed; conditions: 102 kPa, Liquid, Vibrating tube method

CC(C)(C)c1ccccc1 [(1,1-dimethylethyl)benzene] + C[Si]1(CCC(F)(F)F)O[Si](C)(CCC(F)(F)F)O[Si](C)(CCC(F)(F)F)O1
Conditions | mass density, 308.15 K [kg/m3] | mass density, 313.15 K [kg/m3] | mass density, 318.15 K [kg/m3] | mass density, 323.15 K [kg/m3] | refractive index, 308.15 K | refractive index, 313.15 K | refractive index, 318.15 K | refractive index, 323.15 K
[1], x2 = 0 | – | – | – | – | 1.48509 | 1.48256 | 1.48007 | 1.47754
[1], x2 = 0.0476 | – | – | – | – | 1.47051 | 1.46805 | 1.4656 | 1.46312
[1], x2 = 0.1 | – | – | – | – | 1.45684 | 1.45441 | 1.452 | 1.4496
[1], x2 = 0.15 | – | – | – | – | 1.44555 | 1.44313 | 1.44079 | 1.4384
[1], x2 = 0.2 | – | – | – | – | 1.4356 | 1.43327 | 1.43091 | 1.42856
[1], x2 = 0.25 | – | – | – | – | 1.42681 | 1.4245 | 1.42218 | 1.41985
[1], x2 = 0.2999 | – | – | – | – | 1.41901 | 1.41671 | 1.41444 | 1.41212
[1], x2 = 0.3499 | – | – | – | – | 1.41199 | 1.40972 | 1.40747 | 1.40521
[1], x2 = 0.3999 | – | – | – | – | 1.40568 | 1.40344 | 1.4012 | 1.39899
[1], x2 = 0.45 | – | – | – | – | 1.39992 | 1.3977 | 1.39552 | 1.3933
[1], x2 = 0.5 | – | – | – | – | 1.39466 | 1.39251 | 1.39033 | 1.38813
[1], x2 = 0.5498 | – | – | – | – | 1.38992 | 1.38774 | 1.38566 | 1.3834
[1], x2 = 0.6 | – | – | – | – | 1.38555 | 1.38337 | 1.38127 | 1.37906
[1], x2 = 0.6499 | – | – | – | – | 1.38151 | 1.37934 | 1.37726 | 1.37512
[1], x2 = 0.7001 | – | – | – | – | 1.37773 | 1.37562 | 1.37352 | 1.37141
[1], x2 = 0.75 | – | – | – | – | 1.37427 | 1.3722 | 1.3701 | 1.36801
[1], x2 = 0.7995 | – | – | – | – | 1.37106 | 1.36902 | 1.36693 | 1.36485
[1], x2 = 0.8499 | – | – | – | – | 1.36804 | 1.36599 | 1.36394 | 1.36193
[1], x2 = 0.8954 | – | – | – | – | 1.36548 | 1.36342 | 1.36142 | 1.35939
[1], x2 = 0.9485 | – | – | – | – | 1.36268 | 1.36065 | 1.35863 | 1.35667
[2], x2 = 0 | 854.12 | 849.98 | 845.87 | 841.72 | – | – | – | –
[2], x2 = 0.0476 | 894.32 | 889.93 | 885.61 | 881.21 | – | – | – | –
[2], x2 = 0.1 | 933.32 | 928.72 | 924.21 | 919.56 | – | – | – | –
[2], x2 = 0.15 | 966.19 | 961.47 | 956.76 | 951.94 | – | – | – | –
[2], x2 = 0.2 | 995.76 | 990.72 | 985.86 | 980.83 | – | – | – | –
[2], x2 = 0.25 | 1022.23 | 1017.01 | 1012 | 1006.81 | – | – | – | –
[2], x2 = 0.2999 | 1046.09 | 1040.82 | 1035.68 | 1030.38 | – | – | – | –
[2], x2 = 0.3499 | 1067.85 | 1062.39 | 1057.13 | 1051.7 | – | – | – | –
[2], x2 = 0.3999 | 1087.64 | 1082.11 | 1076.69 | 1071.16 | – | – | – | –
[2], x2 = 0.45 | 1105.84 | 1100.2 | 1094.66 | 1089.02 | – | – | – | –
[2], x2 = 0.5 | 1122.55 | 1116.79 | 1111.16 | 1105.4 | – | – | – | –
[2], x2 = 0.5498 | 1137.88 | 1132.05 | 1126.36 | 1120.47 | – | – | – | –
[2], x2 = 0.6 | 1152.22 | 1146.28 | 1140.41 | 1134.47 | – | – | – | –
[2], x2 = 0.6499 | 1165.5 | 1159.37 | 1153.46 | 1147.45 | – | – | – | –
[2], x2 = 0.7001 | 1177.76 | 1171.65 | 1165.58 | 1159.5 | – | – | – | –
[2], x2 = 0.75 | 1189.19 | 1183.03 | 1176.83 | 1170.74 | – | – | – | –
[2], x2 = 0.7995 | 1199.87 | 1193.61 | 1187.3 | 1181.13 | – | – | – | –
[2], x2 = 0.8499 | 1209.99 | 1203.62 | 1197.27 | 1190.93 | – | – | – | –
[2], x2 = 0.8954 | 1218.66 | 1212.17 | 1205.76 | 1199.34 | – | – | – | –
[2], x2 = 0.9485 | 1228.1 | 1221.55 | 1215.06 | 1208.56 | – | – | – | –
